ChEMBL document CHEMBL5523751, “Discovery of Novel Diaryl-Substituted Fused Heterocycles Targeting Katanin and Tubulin with Potent Antitumor and Antimultidrug Resistance Efficacy” (J Med Chem, 2024)
Activity calls are given as the source filed them. The calls are words filed in the database; no cut-off is given here.

Legend:
[1] = Antiproliferative activity against human HUVEC cells assessed as cell viability at 30 to 60 nM measured after 6 hrs by MTT assay relative to control; format: toxicity, cell-based; conditions: dose 30-60 nM, read-out: Activity
[2] = system: MCF7; assay: Induction of cell cycle arrest in human MCF7 cells assessed as accumulation of cells at G2/M phase at 10 nM measured after 24 hrs by propidium iodide staining based flow cytometry analysis (reference value: 26%); format: functional
[3] = system: A549; assay: Antiproliferative activity against human A549 assessed as inhibition of cell growth measured after 48 hrs by MTT assay; format: functional, cell-based; conditions: A549, 48 h
[4] = system: MDA-MB-231; assay: Inhibition of cell migration in human MDA-MB-231 cells assessed as reduction in number of cell migrated at 10 to 40 nM incubated for 24 hrs by crystal violet staining based analysis; format: functional; conditions: dose 10-40 nM
[5] = system: U-87 MG; assay: Antiproliferative activity against human U-87 MG assessed as inhibition of cell growth measured after 48 hrs by MTT assay; format: functional, cell-based, U-87MG ATCC
[6] = system: MDA-MB-231; assay: Antiproliferative activity against human MDA-MB-231 cells assessed as inhibition of cell growth measured after 48 hrs by MTT assay; format: functional, cell-based; conditions: MDA-MB-231, 48 h
[7] = system: MCF7; assay: Induction of apoptosis in human MCF7 cells assessed as upregulation of bad protein level by Western blot analysis; format: functional, cell-based; conditions: dose 10-40 nM
[8] = system: MDA-MB-231; assay: Antitumor activity against human MDA-MB-231 cells xenografted in BALB/c nude mouse model assessed as tumor weight reduction at 15 mg/kg, ip measured after 14 days relative to control; format: functional; set-up: scale not given: the % may be the effect or the level left; conditions: time 14 day
[9] = system: SK-OV-3; assay: Antiproliferative activity against human SK-OV-3 cells assessed as inhibition of cell growth measured after 48 hrs by MTT assay; format: functional, cell-based; conditions: SK-OV-3, 48 h
[10] = Toxicity in Balb/C nude mouse assessed as abnormalities in kidney at 7.5 to 15 mg/kg, ip measured after 14 days by H and E staining based analysis; format: organism-based; conditions: in vivo, 336 h, dose 7.5-15 mg/kg, time 14 day
[11] = system: HCT-116; assay: Antiproliferative activity against human HCT-116 cells assessed as inhibition of cell growth measured after 48 hrs by MTT assay; format: functional, cell-based; conditions: HCT-116, 48 h
[12] = Toxicity in Balb/C nude mouse assessed as drug tolerance at 15 mg/kg, ip measured upto 2 weeks; format: organism-based; conditions: in vivo, 336 h
[13] = system: MCF7; assay: Upregulation of cyclin-B1 expression level in human MCF7 cells at 1 to 10 nM by Western blot analysis; format: functional, cell-based; conditions: dose 1-10 nM
[14] = system: MDA-MB-231; assay: Antitumor activity against human MDA-MB-231 cells xenografted in BALB/c nude mouse model assessed as tumor weight reduction at 7.5 mg/kg, ip measured after 14 days relative to control; format: functional; set-up: scale not given: the % may be the effect or the level left; conditions: time 14 day
[15] = system: A549/TR; assay: Antiproliferative activity against paclitaxel resistant human A549/Taxol cells assessed as inhibition of cell growth measured after 48 hrs by MTT assay; format: functional, cell-based
[16] = Antiproliferative activity against cisplatin resistant human A2780/CDDP cells assessed as inhibition of cell growth measured after 48 hrs by MTT assay; format: functional, cell-based
[17] = system: MDA-MB-231; assay: Downregulation of vimentin expression in human MDA-MB-231 cells at 5 to 40 nM by Western blot analysis; format: functional, cell-based; conditions: dose 5-40 nM
[18] = Toxicity in Balb/C nude mouse xenografted with A549/Taxol assessed as effect on liver at 15 mg/kg, ip measured after 14 days by H and E staining based analysis; format: organism-based, A549/TR; conditions: in vivo, 336 h, time 14 day
[19] = Toxicity in Balb/C nude mouse xenografted with A549/Taxol assessed as effect on spleen at 15 mg/kg, ip measured after 14 days by H and E staining based analysis; format: organism-based, A549/TR; conditions: in vivo, 336 h, time 14 day
[20] = system: MDA-MB-468; assay: Antiproliferative activity against human MDA-MB-468 cells assessed as inhibition of cell growth measured after 48 hrs by MTT assay; format: functional, cell-based; conditions: MDA-MB-468, 48 h
[21] = system: MCF7; assay: Induction of apoptosis in human MCF7 cells assessed as viable cells at 10 nM measured after 48 hrs by annexin-FITC and propidium iodide staining based flow cytometry analysis (reference value: 94.69%); format: functional; conditions: read-out: Activity
[22] = Acute toxicity in ICR mouse assessed as survival rate at 150 mg/kg, ip measured after 14 days relative to control; format: organism-based; conditions: in vivo, time 14 day
[23] = Cmax in mouse at 3 mg/kg, iv measured upto 24 hrs by LC-MS/MS analysis; format: ADME, organism-based; conditions: in vivo
[24] = molecular target: Katanin p60 ATPase-containing subunit A1 (Homo sapiens, UniProt O75449); assay: Binding affinity to N-terminal human Katanin p60 (8 to 229 residues) expressed in Escherichia coli Rosetta (DE3) assessed as dissociation constant by SPR analysis
Katanin p60 ATPase-containing subunit A1, sequence (O75449 whole entry, the tested form may be a part): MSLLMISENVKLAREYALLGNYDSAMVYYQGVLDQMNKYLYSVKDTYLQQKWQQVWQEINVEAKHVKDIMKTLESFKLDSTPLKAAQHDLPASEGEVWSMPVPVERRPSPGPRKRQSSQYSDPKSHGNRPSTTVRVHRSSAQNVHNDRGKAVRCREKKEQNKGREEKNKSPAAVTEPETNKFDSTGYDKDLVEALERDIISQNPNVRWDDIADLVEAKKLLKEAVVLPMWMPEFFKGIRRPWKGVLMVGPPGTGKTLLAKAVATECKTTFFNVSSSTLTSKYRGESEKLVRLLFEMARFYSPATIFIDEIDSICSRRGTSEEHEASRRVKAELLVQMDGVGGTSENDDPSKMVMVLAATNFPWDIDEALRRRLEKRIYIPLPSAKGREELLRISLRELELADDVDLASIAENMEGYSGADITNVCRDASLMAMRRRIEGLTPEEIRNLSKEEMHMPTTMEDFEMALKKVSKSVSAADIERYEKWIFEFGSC

[25] = Toxicity in Balb/C nude mouse xenografted with A549/Taxol assessed as effect on lung at 15 mg/kg, ip measured after 14 days by H and E staining based analysis; format: organism-based, A549/TR; conditions: in vivo, 336 h, time 14 day
[26] = molecular target: Tubulin (Homo sapiens) (UniProt P68371+Q9H4B7+P0DPH7+P68366+Q13509+Q71U36+P04350+Q3ZCM7+P07437+P68363+Q9BQE3+Q6PEY2+Q13885+Q9BVA1+Q9BUF5); assay: Inhibition of microtubule assembly in human MCF7 cells assessed as decrease in density at 1 to 10 nM incubated for 24 hrs by immunofluorescence assay; format: cell-based; conditions: dose 1-10 nM
[27] = MRT (0 to t) in mouse at 3 mg/kg, iv measured upto 24 hrs by LC-MS/MS analysis; format: ADME, organism-based; conditions: in vivo
[28] = Acute toxicity in ICR mouse assessed as animal death at 150 mg/kg, ip measured after 3 to 14 days; format: organism-based; conditions: in vivo, time 3-14 day
[29] = system: PANC-1; assay: Antiproliferative activity against human PANC-1 assessed as inhibition of cell growth measured after 48 hrs by MTT assay; format: functional, cell-based; conditions: PANC-1, 48 h
[30] = Resistance index, ratio of IC50 for antiproliferative activity against human A549/Taxol cells to IC50 for antiproliferative activity against human A549 cells; format: functional
[31] = AUC (0 to infinity) in mouse at 15 mg/kg, po measured upto 24 hrs by LC-MS/MS analysis; format: ADME, organism-based; conditions: in vivo
[32] = AUC (0 to t) in mouse at 3 mg/kg, iv measured upto 24 hrs by LC-MS/MS analysis; format: ADME, organism-based; conditions: in vivo
[33] = system: MDA-MB-231; assay: Inhibition of cell migration in human MDA-MB-231 cells assessed as delay in wound healing at 10 to 20 nM by inverted microscopy based analysis; format: functional; conditions: dose 10-20 nM
[34] = Tmax in mouse at 15 mg/kg, po measured upto 24 hrs by LC-MS/MS analysis; format: ADME, organism-based; conditions: in vivo
[35] = system: MCF7; assay: Induction of apoptosis in human MCF7 cells measured after 48 hrs by annexin-FITC and propidium iodide staining based flow cytometry analysis; format: functional, cell-based; conditions: dose 10-40 nM
[36] = Stability in mouse plasma assessed as half life at 1 uM measured upto 120 mins by LC-MS/MS analysis; format: ADME, cell-free
[37] = system: A549/TR; assay: Antitumor activity against paclitaxel resistant human A549/Taxol cells xenografted in BALB/c nude mouse model assessed as inhibition of tumor growth at 15 mg/kg, ip measured after 14 days relative to control; format: functional; set-up: scale not given: the % may be the effect or the level left; conditions: time 14 day
[38] = Acute toxicity in ICR mouse assessed as survival rate at 300 mg/kg, ip measured after 14 days relative to control; format: organism-based; conditions: in vivo, time 14 day

COc1cc(-n2cnc3ccc(-c4ccc(C)c(N)c4)nc32)cc(OC)c1OC
viability at 6 h, 0.06 µM [1]: > 90% | Activity [2]: ~67% | IC50 [3]: 1 nM | inhibition [4]: Active | IC50 [5]: 15 nM | IC50 [6]: 20 nM | Activity [7]: Dose-Dependent Effect | Activity [8]: 84% | IC50 [9]: 0.8 nM | Activity [10]: Non-Toxic | IC50 [11]: 3 nM | Activity [12]: Non-Toxic | Activity [13]: Active | Activity [14]: 63% | IC50 [15]: 1.6 nM | IC50 [16]: 4.2 nM | Activity [17]: Active | Activity [18]: Non-Toxic | Activity [19]: Non-Toxic | IC50 [20]: 10 nM | viability at 0.01 µM [21]: 53.3% | survival at 336 h [22]: 50% | Cmax [23]: 1650 ng/mL | Kd [24]: 1810 nM | Activity [25]: Non-Toxic | inhibition [26]: Active | MRT last at 24 h [27]: 29.4 min | Activity [28]: Non-Toxic | IC50 [29]: 4 nM | Ratio IC50 [30]: 1.45 | AUC(0-inf) [31]: 1340 ng·h/mL | AUC(0-t) at 24 h [32]: 666 ng·h/mL | inhibition [33]: Active | Tmax [34]: 8.4 min | Activity [35]: Dose-Dependent Effect | half-life at 1 µM [36]: 39 h | Activity [37]: 74% | survival at 336 h [38]: 0%
